These results are taken from US20160058712A1, “3-HYDROXYPTEROSTILBENE AND THERAPEUTIC APPLICATIONS THEREOF” (priority 2014, published 2016).

Data set [1] has as its system PC-3 cells. In words: DNA fragmentation by agarose gel electrophoresis. Type of data set: cell-based, human. The following applies: PC-3, 0-20 μM, 48 hr, 2.0% agarose gel.
Data set [2] deals with COLO 205 xenograft tumors. In words: COLO 205 xenograft model. The data set is classed as in vivo. The procedure:
Male Balb/c nude mice at 3-4 weeks old (weighing 16-18 g) were obtained from the BioLASCO Experimental Animal Center (BioLASCO, Taipei, Taiwan). All animals were maintained in pathogen free sterile isolators and in a controlled atmosphere (25±1° C. at 50% relative humidity) and with a 12 h light-12 h dark cycle according to institutional guidelines. Animals were fed with standard AIN76 diet and all food, water, caging, and bedding were sterilized prior to use. Animals had free access to food and water at all times. Food cups were replenished with fresh diet every day. All animal experimental protocol used in this study was approved by Institutional Animal Care and Use Committee of the National Kaohsiung Marine University (IACUC, NKMU, #099AAA902, Validity dates: Jan. 1, 2009 Jul. 31, 2012). After 1 week of acclimation, colon cancer COLO 205 cells (5×10^6) in 0.2 mL PBS were injected subcutaneously between the scapulae of each nude mouse. After transplantation, tumor size was measured using calipers, and the tumor volume was estimated according to the following formula: tumor volume […]=L×W2/2, where L is the length and W is the width. Once tumors reached a mean size of […], mice were randomly divided into three groups (6 animals/group). Mice were i.p. injection with pterostilbene or 3-hydroxypterostilbene (10 mg/kg/d, respectively) for 15 days, while control animals were received injection of corn oil. The diet intake and body weight of each animal was monitored every day. The tumor volume was assessed and recorded every 5 days using caliper measurements. After 15 days, the mice were sacrificed by […] and the liver, kidneys, spleen and solid tumors were excised immediately and weighed. Average tumor volume and tumor weight of each group were represent the mean±standard deviation (SD). Average tumor volumes were recorded during the treatment and average tumor weights were measured at the end of experiment. Six samples were analyzed in each group, and values represent the mean±SD. *P<0.05 and **P<0.01, compared with control group. #P<0.05, compared with pterostilbene treated group. The tumor tissues were cut into several portion for western blot analysis or stored at −80° C. […] Furthermore, in mice receiving these treatment regimens, no gross signs of toxicity were observed during visible inspections of general appearance and microscopic examinations of individual organs. • 2.

For data set [3], the system named is LC3 I/II in COLO 205 cells. The data set can be described thus: Western blotting of LC3 I/II expression. The data set is classed as cell-based, human. The following applies: COLO 205, 50 μM, 24 hours, compared to pterostilbene. The procedure: (§1) Western blotting analysis was performed as follows. The total proteins of COLO 205 cells were extracted via addition of gold lysis buffer (50 mM TrisHCl, pH 7.4; 1 mM NaF; 150 mM NaCl; 1 mM EGTA; 1 mM phenylmethanesulfonyl fluoride; 1% NP40; and 10 μg/mL leupeptin) to the cell pellets on ice for 30 min, followed by centrifugation at 10,000×g for 30 min at 4° C. The total proteins were measured by BioRad Protein Assay (BioRad Laboratories, Munich, Germany). The samples (50 μg of protein) were mixed with 5× sample buffer containing 0.3 M TrisHCl (pH 6.8), 25% 2mercaptoethanol, 12% sodium dodecyl sulfate (SDS), 25 mM EDTA, 20% glycerol, and 0.1% bromophenol blue. The mixtures were boiled at 100° C. for 5 min and were subjected to 10% SDS polyacrylamide minigels at a constant current of 20 mA. Electrophoresis was then carried out on SDSpolyacrylaniide gels. […] The transferred proteins were visualized with an enhanced chemi-luminescence detection kit (ECL Amersham Pharmacia Biotech, Buckinghamshire, UK). The densities of the bands were quantified with a computer densitometer (AlphaImager™ 2200 System Alpha densitometer. Innotech Corporation, San Leandro, Calif.). […]
(§2) COLO 205 cells were treated with 50 μM pterostilbene or 3-hydroxypterostilbene for 24 hours. Cell lysates were prepared after 24 h treatment and the protein expression of LC3 were analyzed by Western blotting.

The subject of data set [4] is caspase 3, 8 and 9 in PC-3 cells. The data set can be described thus: Fluorometric caspase 3, 8 and 9 activity in PC-3 cells. The following applies: PC-3, 0-20 μM, 48 hours. Type of data set: cell-based, human.
For data set [5], the system named is PI3K/Akt, MAPKs and mTOR signaling in COLO 205 cells. The data set can be described thus: Western blotting of mTOR/p70S6K, PI3K/Akt and MAPKs signaling. Type of data set: cell-based, human. The following applies: COLO 205, 50 μM, 24 hours. The procedure: as §1, §2
The subject of data set [6] is COLO 205 cells. In words: ROS production by DCFHDA flow cytometry. Type of data set: cell-based, human. The following applies: COLO 205, 50 μM, 15 min; from 114. The procedure:
(§3) For mitochondrial membrane potential and ROS production, COLO 205 cells were treated as described under Example III for 15 min, and then DiOC6 [3,3′-dihexyloxacarbocyanine iodide] (40 nM) or DCFHDA [2′,7′-dichlorodihydrofluorescein diacetate] (20 μM) was added to the medium for a further 30 min at 37° C. After washing with PBS, the fluorescence intensity was determined by FAC Scan cytometry. The DiOC6 fluorescence intensity shifted to the left from 224 to 117 and 75 in pterostilbene and 3-HPT induced apoptotic COLO 205 cells, respectively. […] The role of ROS in the induction of apoptosis is well recognized. […] The imbalance of ROS concentrations could play an important role as an early mediator in 3-HPT induced apoptosis.

The subject of data set [7] is COLO 205 cells. In words: Mitochondrial membrane potential by DiOC6 flow cytometry. Type of data set: cell-based, human. The following applies: COLO 205, 50 μM, 15 min; shifted from 224. The procedure:
as §3

Data set [8] has as its system PC-3 cells. In words: Mitochondrial membrane potential by DiOC6 flow cytometry in PC-3 cells. The following applies: PC-3, 10 and 20 μM, 48 hr. The data set is classed as cell-based, human. The procedure: As a measure of down-stream check points in the mammalian apoptotic pathways, the potential of 3-HPT to cause mitochondrial dysfunction and activation of the caspase pathways was further evaluated. PC-3 cells were cultured in serum-free RPMI containing 0, 2.5, 5, 10, or 20 μM of 3-HPT for 48 hr, respectively. Then, cells were stained with DiOC6 and analyzed by flow cytometry.

On to `COc1cc(/C=C/c2ccc(O)c(O)c2)cc(OC)c1` [3-hydroxypterostilbene, 3,4-dihydroxy-3′,5′-dimethoxy-trans-stilbene], for which, in the data set on PC-3 cells [1], the DNA fragmentation result was “indicated apoptotic cells death”. For the same compound, in data set [2] (10 mg/kg, Western blot, compared to the pterostilbene group), the “protein levels of COX2, MMP9, VEGF, cyclin D1, and procaspase 3 in tumors” value was “markedly decreased”. Moreover, in data set [2] (10 mg/kg/d i.p., 15 days, nude mice), the “side effects or toxicity (body and organ weights, gross signs)” value is “no noticeable side effects or toxicity”. In data set [2] (10 mg/kg/d i.p., after 15 days), the tumor volume result is listed as “significantly inhibited in comparison with the pterostilbene treated mice”. Further, the tumor weight entry in data set [2] (10 mg/kg/d i.p., end of experiment) is “strongly inhibited”. Also, in data set [3], the “protein LC3 I/II expression” value is on record as “Enhanced protein LC3 I/II expression”. Besides, in data set [4], the “caspases activity (caspase 3, 8 and 9)” value is “initiation of caspases activity”. Moreover, the “PI3K/Akt and MAPKs signalings, phosphorylation of mTOR” value in data set [5] is reported as “significantly down regulated”. In the data set on COLO 205 cells [6], the “mean DCFHDA fluorescence intensity (ROS)” value was 38. The “DiOC6 fluorescence intensity (mitochondrial membrane potential)” value with COLO 205 cells [7] is listed as 75. The mitochondrial membrane potential result in the data set on PC-3 cells [8] is listed as “significant reduction”.
